Measured values published in PubChem BioAssay AID1745844 (Carcinogenic Potency Database (CPDB), 2022).
The source made the active and inactive calls. No rule for the calls is given here.

System: rodent lifetime carcinogenesis bioassay, tumor incidence TD50
Assay: chronic cancer bioassays in animals – CPDB, compiled studies (AID 1745844)

O=C1NCCN1/N=C/c1ccc([N+](=O)[O-])o1
TD50 (rat, strain Sprague-Dawley, females, in feed, site: all sites, lesion: lymphoblastic lymphoma, dosed 46 weeks, study length 66 weeks): 82 mg/kg/day
TD50 (rat, strain Sprague-Dawley, females, in feed, site: mammary gland, lesion: adenocarcinoma, dosed 46 weeks, study length 66 weeks): 5.26 mg/kg/day

O=C1CCCCC1
TD50 (mouse, strain B6C3F1, females, in drinking water, site: all sites, lesion: malignant lymphoma, dosed 104 weeks, study length 107 weeks): 3690 mg/kg/day
TD50 (rat, strain Fischer 344, females, in drinking water, site: liver, lesion: neoplastic nodule, dosed 104 weeks, study length 107 weeks): 6300 mg/kg/day
TD50 (rat, strain Fischer 344, males, in drinking water, site: adrenal gland, lesion: cortical adenoma, dosed 104 weeks, study length 107 weeks): 929 mg/kg/day

NC(=O)c1ccncc1
TD50 (mouse, strain Swiss albino, females, in drinking water, site: liver, lesion: hepatoma, dosed 121 weeks, study length 121 weeks): 21300 mg/kg/day (inactive)
carcinogen call (mouse, strain Swiss albino, females, in drinking water, site: lung, lesion: several types, types named in the paper, dosed 121 weeks, study length 121 weeks): negative (inactive)
carcinogen call (mouse, strain Swiss albino, males, in drinking water, site: lung, lesion: several types, types named in the paper, dosed 117 weeks, study length 117 weeks): negative (inactive)

CC1(C)O[C@@H]2C[C@H]3[C@@H]4CCC5=CC(=O)C=C[C@]5(C)[C@@]4(F)[C@@H](O)C[C@]3(C)[C@]2(C(=O)CO)O1
TD50 (rat, strain Charles River CD (Sprague-Dawley), males, in drinking water, site: liver, lesion: hepatocellular adenoma, dosed 104 weeks, study length 104 weeks): 0.0917 mg/kg/day
TD50 (rat, strain Charles River CD (Sprague-Dawley), males, in drinking water, site: liver, lesion: hepatocellular carcinoma, dosed 104 weeks, study length 104 weeks): 0.141 mg/kg/day
TD50 (rat, strain Charles River CD (Sprague-Dawley), males, in drinking water, site: liver, lesion: several types, types named in the paper, dosed 104 weeks, study length 104 weeks): 0.053 mg/kg/day

CC(I)C1OCC(CO)O1 (centres undefined)
TD50 (mouse, strain B6C3F1, females, by gavage, site: Harderian gland + pituitary gland, anterior, lesion: adenoma, NOS + carcinoma, NOS, dosed 103 weeks, study length 105 weeks): 92.4 mg/kg/day
TD50 (mouse, strain B6C3F1, females, by gavage, site: Harderian gland, lesion: adenoma, NOS + carcinoma, NOS, dosed 103 weeks, study length 105 weeks): 263 mg/kg/day
TD50 (mouse, strain B6C3F1, females, by gavage, site: any site (literature study), lesion: several types, types named in the paper, dosed 103 weeks, study length 105 weeks): 172 mg/kg/day
TD50 (mouse, strain B6C3F1, females, by gavage, site: forestomach, lesion: squamous-cell papilloma, dosed 103 weeks, study length 105 weeks): 608 mg/kg/day
TD50 (mouse, strain B6C3F1, females, by gavage, site: liver, lesion: hepatocellular adenoma + hepatocellular carcinoma + neoplastic nodule, dosed 103 weeks, study length 105 weeks): 373 mg/kg/day
TD50 (mouse, strain B6C3F1, females, by gavage, site: liver, lesion: hepatocellular adenoma + hepatocellular carcinoma, dosed 103 weeks, study length 105 weeks): 373 mg/kg/day
TD50 (mouse, strain B6C3F1, females, by gavage, site: liver, lesion: hepatocellular adenoma, dosed 103 weeks, study length 105 weeks): 471 mg/kg/day
TD50 (mouse, strain B6C3F1, females, by gavage, site: lung, lesion: alveolar/bronchiolar adenoma + alveolar/bronchiolar carcinoma, dosed 103 weeks, study length 105 weeks): 2740 mg/kg/day
TD50 (mouse, strain B6C3F1, females, by gavage, site: pituitary gland, anterior, lesion: adenoma, NOS, dosed 103 weeks, study length 105 weeks): 138 mg/kg/day
carcinogen call (mouse, strain B6C3F1, males, by gavage, site: any site (literature study), lesion: several types, types named in the paper, dosed 103 weeks, study length 104 weeks): negative (inactive)
TD50 (mouse, strain B6C3F1, males, by gavage, site: liver, lesion: hepatocellular adenoma + hepatocellular carcinoma + neoplastic nodule, dosed 103 weeks, study length 104 weeks): 1100 mg/kg/day
TD50 (mouse, strain B6C3F1, males, by gavage, site: lung, lesion: alveolar/bronchiolar adenoma + alveolar/bronchiolar carcinoma, dosed 103 weeks, study length 104 weeks): 2410 mg/kg/day
TD50 (rat, strain Fischer 344, females, by gavage, site: any site (literature study), lesion: several types, types named in the paper, dosed 103 weeks, study length 104 weeks): 214 mg/kg/day (inactive)
TD50 (rat, strain Fischer 344, females, by gavage, site: liver, lesion: hepatocellular adenoma + hepatocellular carcinoma + neoplastic nodule, dosed 103 weeks, study length 104 weeks): 2490 mg/kg/day
TD50 (rat, strain Fischer 344, males, by gavage, site: any site (literature study), lesion: several types, types named in the paper, dosed 103 weeks, study length 104 weeks): 52.1 mg/kg/day
TD50 (rat, strain Fischer 344, males, by gavage, site: liver, lesion: hepatocellular adenoma + hepatocellular carcinoma + neoplastic nodule, dosed 103 weeks, study length 104 weeks): 571 mg/kg/day
TD50 (rat, strain Fischer 344, males, by gavage, site: multiple organs + thyroid gland, lesion: mononuclear-cell leukemia + follicular-cell carcinoma, dosed 103 weeks, study length 104 weeks): 84.1 mg/kg/day
TD50 (rat, strain Fischer 344, males, by gavage, site: multiple organs, lesion: mononuclear-cell leukemia, dosed 103 weeks, study length 104 weeks): 101 mg/kg/day
TD50 (rat, strain Fischer 344, males, by gavage, site: nasal cavity, lesion: adenoma, NOS, dosed 103 weeks, study length 104 weeks): 1210 mg/kg/day
TD50 (rat, strain Fischer 344, males, by gavage, site: testis, lesion: interstitial-cell tumor, dosed 103 weeks, study length 104 weeks): 40.6 mg/kg/day
TD50 (rat, strain Fischer 344, males, by gavage, site: thyroid gland, lesion: follicular-cell carcinoma, dosed 103 weeks, study length 104 weeks): 280 mg/kg/day

CCCCCCCCCCCN(C)N=O
TD50 (rat, strain Fischer 344, males, by gavage, site: esophagus, lesion: squamous-cell carcinoma, dosed 30 weeks, study length 65 weeks): 15.4 mg/kg/day
TD50 (rat, strain Fischer 344, males, by gavage, site: liver, lesion: cholangiocarcinoma, dosed 30 weeks, study length 65 weeks): 3.18 mg/kg/day
TD50 (rat, strain Fischer 344, males, by gavage, site: liver, lesion: hepatocellular carcinoma, dosed 30 weeks, study length 65 weeks): 2.38 mg/kg/day
TD50 (rat, strain Fischer 344, males, by gavage, site: lung, lesion: alveolar adenoma, dosed 30 weeks, study length 65 weeks): 2.41 mg/kg/day
TD50 (rat, strain Fischer 344, males, by gavage, site: lung, lesion: alveolar-cell adenoma, dosed 30 weeks, study length 65 weeks): 4.99 mg/kg/day
TD50 (rat, strain Fischer 344, males, by gavage, site: lung, lesion: squamous-cell carcinoma, dosed 30 weeks, study length 65 weeks): 2.37 mg/kg/day
TD50 (rat, strain Fischer 344, males, by gavage, site: stomach, nonglandular, lesion: papilloma, dosed 30 weeks, study length 65 weeks): 15.4 mg/kg/day
